We go through one molecule from patent publication US11116767B2, “3,5-disubstituted pyrazoles useful as checkpoint kinase 1 (Chk1) inhibitors, and their preparations and applications” (PHARMAENGINE, INC., priority 2016, dated 2021).

The test system of series [1] is LoVo colon cancer xenograft. Put plainly: LoVo colon xenograft model. It is filed as in vivo, Balb/c nude mice. The method, then: (§1) Female Balb/c nude mice at 7-8 weeks of age (Body weights between 17-18g) were purchased from Hunan SJA Laboratory Animal Co., Ltd. HT-29 cells were cultured in DMEM culture medium containing 10% fetal bovine serum and LoVo cells were cultured in RPMI 1640 culture medium containing 10% fetal bovine serum. The cells were harvested and washed with serum free culture medium. Finally, the cells were suspended at a cell density of […] in serum free culture medium for implantation. 5 million cells per animal suspended in 0.1 ml serum free culture medium and 1.1 matrigel were injected into the right flank of the animals after a one, week acclimation period. When average tumor volume reached acceptable tumor size (100-200 mm^3) and shape, the animals were randomly assigned into treatment groups.
Lovo colon cancer cells were implanted to establish the xenograft model in Balb/c nude mice. Compound 3 and LY2606368 were dissolved in 30% SEB-β-CD (Zhiyuan Bio-technology) with 1 molar equivalents of HCl. […]

For the next series, the system named is HT-29. Put plainly: Cancer cell growth inhibition assay (CellTiter-Glo), HT-29. The series is classed as cell-based, Human. The conditions noted are these: Homo sapiens, HT-29; 72 hours, cellular ATP content; read-out: HT-29 anti cell proliferation activity (grade). The method, then:
Human cancer cell lines were purchased from American Type Culture Collection (Manassas, Va.). The trypsinized cells were diluted to required volume at densities of 44,000 cells/ml. 90 ul cell slurry was dispensed per well in 96-well flat-bottomed plates with the recommended culture medium. The cells were incubated for 24 hours at 37° C. in 5% CO2 under humidified condition. The cells were then incubated with compounds at various concentrations for 72 hours in culture medium supplemented with 0.5% (v/v) FBS. Growth inhibition was assessed by assay of cellular ATP content using CellTiter-Glo reagent to each well. Luminesce was read on Envision. The inhibition rate (%)=(Max signal compound signal)/(Max signal Min signal)×100.

For series [2], the system named is HT-29 colon cancer xenograft. The series is classed as in vivo. The method, then: as §1
HT-29 colon cancer cells were implanted to establish the xenograft model in Balb/c nude mice. Compound 3 and LY2606368 were dissolved in 30% SEB-β-CD (Zhiyuan Bio-technology) with 1 molar equivalents of HCl. GDC-575 was suspended in 0.5% methyl cellulose/0.1% Tween 80 in water. […]. The animals well tolerated each treatment in the HT-29 colon cancer in nude mice model.

pIC50: −log10 of the molar value.

Take `COc1cc(F)cc(OCCCN)c1-c1cc(Nc2cnc(C#N)cn2)n[nH]1` [Compound 3, 5-(5-(2-(3-Aminopropoxy)-4-fluoro-6-methoxyphenyl)-1H-pyrazol-3-ylamino)pyrazine-2-carbonitrile]: in series [1] (40 mg/kg, IV, twice a week), the T/C value is given as −77%. In series [1] (LY2606368 15 mg/kg, Compound 3 10, 20, 40 mg/kg, IV, twice a week), the tumor growth inhibition result is listed as “significant tumor growth inhibition in a dose-dependent manner”. For the same molecule, in series [1] (MTD dose), the “efficacy compared with LY2606368 at MTD dose” value is “more efficacious than LY2606368”. Besides, the pIC50 in the series on HT-29 is 7.30 to 8.00. Further, in series [2] (40 mg/kg, iv, 2 times/week), the T/C value is 31%, the “Tumor volume (X ± SD)” value amounted to 407 ± 17 mm^3 and the “Tumor weight (X ± SD)” value turned out to be 272 ± 16 mg. In addition, the “efficacy compared with references at their MTD” value in series [2] (mouse, in vivo) is “more efficacious than the reference LY-2606368”.
